We go through one molecule from patent publication US10196393B2, “JAK inhibitors containing a 4-membered heterocyclic amide” (THERAVANCE BIOPHARMA R&D IP, LLC, priority 2017, dated 2019).

Experiment [1] relates to IL-6 stimulated STAT3 phosphorylation in CD3+ T cells. Put plainly: Cellular JAK potency assay: inhibition of IL-6 stimulated pSTAT3 in CD3+ T cells. As to conditions: T-cell; CD3+ T cells in human PBMCs; read-out: pIC50, inhibition of IL-6 stimulated pSTAT3 (converted). The class given is cell-based. From the text: Assay 11: Cellular JAK Potency Assay: Inhibition of IL-6 Stimulated pSTAT3 in CD3+ T Cells
A protocol analogous to that of Assay 10 was used to determine the potency of the test compound for inhibition of interleuken-6 (IL-6) stimulated STAT3 phosphorylation. An Alexa Fluor 647 conjugated anti-pSTAT3 antibody (pY705, Clone 4/P, BD Biosciences) was used to detect STAT3 phosphorylation.

Experiment [2] has as its system IL-27 induced CXCL10 and CXCL9 secretion in EpiAirway tissue cultures. Put plainly: Inhibition of IL-27 induced chemokines CXCL9 and CXCL10 in human 3D airway cultures. In kind it is cell-based. As to conditions: 192 h, Day 8, ±STDV. The method, then:
(§1) Assay 7: Inhibition of IFNγ and IL-27 Induced Chemokines CXCL9 and CXCL10 in Human 3D Airway Cultures
(§2) EpiAirway tissue cultures were obtained from Mattek (AIR-100). Cultures were derived from asthmatic donors. In a cell culture insert, human derived tracheal/bronchial epithelial cells were grown and differentiated on a porous membrane support, allowing an air-liquid interface with warmed culture medium below the cells and a gaseous test atmosphere above. Tissues were cultured in maintenance media (Mattek, AIR-100-MM) in a 37° C., 5% CO2 humidified incubator. Four donors were tested. On Day 0, tissue cultures were treated with test compounds at 10 μM, 1 μM and/or 0.1 μM. Compounds were diluted in dimethyl sulfoxide (DMSO, Sigma) to a final concentration of 0.1%. DMSO at 0.1% was used as a vehicle control. Test compounds were incubated with cultures for 1 hour at 37° C., 5% CO2, followed by the addition of pre-warmed media containing IFNγ (R&D Systems) or IL-27 (R&D Systems) at a final concentration at 100 ng/ml. Tissue cultures were maintained for 8 days. Media was replaced every 2 days with fresh media containing compounds and IFNγ or IL-27. On Day 8, tissue cultures and supernatants were collected for analysis. Supernatant samples were assayed for CXCL10 (IP-10) and CXCL9 (MIG) using luminex analysis (EMD Millipore). Data is expressed as % Inhibition +/−standard deviation (±STDV). Percent inhibition was determined by compound inhibitory potency against IFNγ or IL-27 induced CXCL10 or CXCL9 secretion compared to vehicle treated cells. Data is the average from 3 or 4 donors. […] The compound of example 2 was able to inhibit IFNγ induced CXCL9 secretion by 93%±13 (at 10 μM) and 24%±49 (at 1 μM) when compared to vehicle.

For another experiment, the target named is Tyk2 (Homo sapiens (Human), UniProt P29597). Put plainly: Biochemical JAK kinase assay (LanthaScreen), Tyk2. The following applies: converted from pIC50 with Cheng-Prusoff equation. The method, then:
Assay 1: Biochemical JAK Kinase Assays
A panel of four LanthaScreen JAK biochemical assays (JAK1, 2, 3 and Tyk2) were carried in a common kinase reaction buffer (50 mM HEPES, pH 7.5, 0.01% Brij-35, 10 mM MgCl2, and 1 mM EGTA). Recombinant GST-tagged JAK enzymes and a GFP-tagged STAT1 peptide substrate were obtained from Life Technologies.
Serially diluted compounds were pre-incubated with each of the four JAK enzymes and the substrate in white 384-well microplates (Corning) at ambient temperature for 1 h. ATP was subsequently added to initiate the kinase reactions in 10 μL total volume, with 1% DMSO. […] The plates were allowed to incubate at ambient temperature for 1 h before being read on the EnVision reader (Perkin Elmer).
For dose-response analysis, percent inhibition data were plotted vs. compound concentrations, and IC50 values were determined from a 4-parameter robust fit model with the Prism software (GraphPad Software). Results were expressed as pIC50 (negative logarithm of IC50) and subsequently converted to pKi (negative logarithm of dissociation constant, Ki) using the Cheng-Prusoff equation.

For experiment [3], the system named is IFNγ induced CXCL10 and CXCL9 secretion in EpiAirway tissue cultures. The experiment can be described thus: Inhibition of IFNγ induced chemokines CXCL9 and CXCL10 in human 3D airway cultures. The class given is cell-based. The following applies: 192 h, Day 8, ±STDV. The method, then:
as §1, §2

Experiment [4] deals with IL-4 stimulated STAT6 phosphorylation in CD3+ T cells. The experiment can be described thus: Cellular JAK potency assay: inhibition of IL-4 stimulated pSTAT6 in CD3+ T cells. As to conditions: T-cell; CD3+ T cells in human PBMCs; read-out: pIC50, inhibition of IL-4 stimulated pSTAT6 (converted). The class given is cell-based. The protocol:
Assay 10: Cellular JAK Potency Assay: Inhibition of IL-4 Stimulated pSTAT6 in CD3+ T Cells
The potency of the test compound for inhibition of interleukin-4 (IL-4) stimulated STAT6 phosphorylation was measured in CD3-positive (CD3+) T cells in human peripheral blood mononuclear cells (PBMCs) isolated from human whole blood (Stanford Blood Center) using flow cytometry. Because IL-4 signals through JAK, this assay provides a measure of JAK cellular potency.
CD3+ T cells were identified using a […] (PE) conjugated anti-CD3 antibody (Clone UCHT1, BD Biosciences), while an Alexa Fluor 647 conjugated anti-pSTAT6 antibody (pY641, Clone 18/P, BD Biosciences) was used to detect STAT6 phosphorylation.
Human peripheral blood mononuclear cells (PBMC) were isolated from human whole blood of healthy donors as in Assays 8 and 9. […] After incubation, cells were washed twice in FACS buffer before being analyzed using a LSRII flow cytometer (BD Biosciences).
To determine the inhibitory potency of the test compound in response to IL-4, the median fluorescent intensity (MFI) of pSTAT6 was measured in CD3+ T cells. IC50 values were determined from analysis of the inhibition curves of MFI vs compound concentration. Data are expressed as pIC50 (negative decadic logarithm IC50).

Where [5] appears, read: read-out: % inhibition of IL-27 induced CXCL9 secretion.
Where [6] appears, read: read-out: % inhibition of IL-27 induced CXCL10 secretion.

Each structure is given as a SMILES string. Where two headings read alike, the source gives them in different places.

Sequence of Tyk2 (P29597 whole entry): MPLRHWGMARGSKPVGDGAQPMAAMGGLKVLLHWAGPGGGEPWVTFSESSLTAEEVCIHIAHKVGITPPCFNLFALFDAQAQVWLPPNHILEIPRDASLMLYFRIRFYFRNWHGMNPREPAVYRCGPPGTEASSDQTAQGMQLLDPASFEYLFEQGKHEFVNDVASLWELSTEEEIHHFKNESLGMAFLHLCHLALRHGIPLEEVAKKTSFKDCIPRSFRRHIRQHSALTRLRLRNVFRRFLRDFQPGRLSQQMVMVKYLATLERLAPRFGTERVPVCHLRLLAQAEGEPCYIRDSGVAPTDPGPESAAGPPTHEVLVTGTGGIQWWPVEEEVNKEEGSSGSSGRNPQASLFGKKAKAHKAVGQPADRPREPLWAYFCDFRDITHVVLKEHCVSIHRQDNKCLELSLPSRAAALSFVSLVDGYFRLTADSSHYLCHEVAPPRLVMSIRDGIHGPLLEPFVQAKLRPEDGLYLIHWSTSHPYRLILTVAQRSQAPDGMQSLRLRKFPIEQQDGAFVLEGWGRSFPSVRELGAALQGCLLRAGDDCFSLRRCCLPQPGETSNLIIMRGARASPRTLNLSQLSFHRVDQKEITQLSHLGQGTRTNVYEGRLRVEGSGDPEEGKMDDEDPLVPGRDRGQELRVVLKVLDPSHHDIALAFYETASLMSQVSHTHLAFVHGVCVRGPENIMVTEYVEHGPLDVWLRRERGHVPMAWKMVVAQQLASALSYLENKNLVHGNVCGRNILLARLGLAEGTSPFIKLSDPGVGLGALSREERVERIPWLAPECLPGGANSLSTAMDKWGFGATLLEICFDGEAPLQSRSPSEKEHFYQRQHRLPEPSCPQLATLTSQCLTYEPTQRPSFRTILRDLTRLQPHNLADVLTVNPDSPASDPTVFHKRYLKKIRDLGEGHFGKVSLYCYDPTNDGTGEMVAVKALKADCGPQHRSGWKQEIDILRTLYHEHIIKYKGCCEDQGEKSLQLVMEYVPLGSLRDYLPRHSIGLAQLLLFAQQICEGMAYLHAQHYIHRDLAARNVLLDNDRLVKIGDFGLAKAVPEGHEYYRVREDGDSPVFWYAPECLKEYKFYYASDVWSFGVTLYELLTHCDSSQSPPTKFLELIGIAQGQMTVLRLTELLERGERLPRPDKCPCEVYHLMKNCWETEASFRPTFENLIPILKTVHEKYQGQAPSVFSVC

In the case of `CCc1cc(O)c(F)cc1-c1ccc2c(-c3nc4c([nH]3)CN(C(C)C)[C@H](C(=O)N3CC(N(C)C)C3)C4)n[nH]c2c1` [Example 2, (S)-(3-(dimethylamino)azetidin-1-yl)(2-(6-(2-ethyl-5-fluoro-4-hydroxyphenyl)-1H-indazol-3-yl)-5-isopropyl-4,5,6,7-tetrahydro-3H-imidazo[4,5-c]pyridin-6-yl)methanone], the IC50 in experiment [1] was 63.1 nM; in experiment [4], 12.6 nM. Moreover, the inhibition at 0.1 µM in experiment [2] (setting [5]) was determined as 57%; in experiment [2] (setting [6]), 69%; in experiment [3] (at 0.1 μM) it was 6%. For the same molecule, the inhibition at 1 µM in experiment [2] (setting [5]) was 97%; in experiment [2] (setting [6]), 101%; in experiment [3] (at 1 μM) it was 24%. In addition, the inhibition at 10 µM in experiment [2] (setting [5]) was 100%; in experiment [2] (setting [6]), 108%; in experiment [3] (3 or 4 donors, read-out: % inhibition of IFNγ induced CXCL10 secretion), 101%; in experiment [3] (read-out: % inhibition of IFNγ induced CXCL9 secretion), 93%. At Tyk2, this molecule returned an inhibition constant Ki of 0.32 nM.

As a reminder, the inhibition is the change of the read-out against control, counted positive when it falls. For orientation: Ki means a dissociation constant, usually derived from enzyme kinetics or from competition with a known ligand. Low values mean a stronger hold on the target, high ones a looser hold on the target.
